ChEMBL document CHEMBL1127625, “Modulation of the kynurenine pathway in search for new neuroprotective agents. Synthesis and preliminary evaluation of (m-nitrobenzoyl)alanine, a potent inhibitor of kynurenine-3-hydroxylase” (J Med Chem, 1994)

How the values were obtained:
Kynureninase = target: T1, Kynureninase (Rattus norvegicus, UniProt P70712); assay: Ability to inhibit kynureninase was determined in a competitive inhibition assay.
T1 sequence (P70712 whole entry): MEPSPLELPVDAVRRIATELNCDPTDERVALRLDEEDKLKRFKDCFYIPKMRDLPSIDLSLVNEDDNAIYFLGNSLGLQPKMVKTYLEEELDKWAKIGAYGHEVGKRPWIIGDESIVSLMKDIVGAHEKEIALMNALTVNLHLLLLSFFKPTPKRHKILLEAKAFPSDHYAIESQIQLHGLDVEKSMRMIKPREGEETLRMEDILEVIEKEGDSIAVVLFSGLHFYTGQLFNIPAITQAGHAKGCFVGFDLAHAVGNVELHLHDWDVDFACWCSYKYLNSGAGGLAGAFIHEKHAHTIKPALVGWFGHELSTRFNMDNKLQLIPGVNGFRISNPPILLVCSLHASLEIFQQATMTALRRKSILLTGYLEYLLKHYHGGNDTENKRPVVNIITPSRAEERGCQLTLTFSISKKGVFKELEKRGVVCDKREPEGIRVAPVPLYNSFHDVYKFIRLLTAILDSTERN

Mus musculus [1] = assay: Sedative and anticonvulsant effects at dose 200 mg/kg, administered intraperitoneally; value expressed as death /tested =0/13; assay type: ADME, organism-based; design: dose 200 mg/kg, route intraperitoneal; settings: in vivo, ip
Mus musculus [2] = assay: Sedative and anticonvulsant effects at dose 400 mg/kg, administered intraperitoneally; value expressed as death /tested =2/6; assay type: organism-based; design: dose 400 mg/kg, route intraperitoneal; settings: in vivo, ip
Mus musculus [3] = assay: Sedative and anticonvulsant effects at dose 400 mg/kg, administered intraperitoneally; value expressed as clonic /tested =4/6; assay type: functional; settings: route intraperitoneal
Mus musculus [4] = assay: Sedative and anticonvulsant effects at dose 200 mg/kg, administered intraperitoneally; value expressed as clonic /tested =6/13; assay type: functional; settings: route intraperitoneal
Mus musculus [5] = assay: Sedative and anticonvulsant effects at dose 400 mg/kg, administered intraperitoneally; value expressed as tonic /tested =2/6; assay type: functional; settings: route intraperitoneal
Mus musculus [6] = assay: Sedative and anticonvulsant effects at dose 200 mg/kg, administered intraperitoneally; value expressed as tonic /tested =1/13; assay type: functional; settings: route intraperitoneal
Rattus norvegicus [7] = assay: Effect on kynurenic acid (KYNA) content in rat blood at dose 400 mg/kg administered intraperitoneally; assay type: functional; settings: route intraperitoneal
Rattus norvegicus [8] = assay: Effect on kynurenic acid (KYNA) content in rat brain at dose 400 mg/kg administered intraperitoneally; assay type: functional; settings: route intraperitoneal
Rattus norvegicus [9] = assay: Effect on kynurenic acid (KYNA) content in rat liver at dose 400 mg/kg administered intraperitoneally; assay type: functional; settings: route intraperitoneal
Rattus norvegicus [10] = assay: Effect on […] (KYN) content in rat blood at dose 400 mg/kg administered intraperitoneally; assay type: functional; settings: route intraperitoneal
Rattus norvegicus [11] = assay: Effect on […] (KYN) content in rat brain at dose 400 mg/kg administered intraperitoneally; assay type: functional; settings: route intraperitoneal
Rattus norvegicus [12] = assay: Effect on […] (KYN) content in rat liver at dose 400 mg/kg administered intraperitoneally; assay type: functional; settings: route intraperitoneal
[13] = target: Kynurenine 3-monooxygenase (Rattus norvegicus) (UniProt O88867); assay: Differences in inhibition of kynurenine-3-hydroxylase by m-NBA versus compound is determined
[14] = target: Kynurenine 3-monooxygenase (Rattus norvegicus, UniProt O88867); assay: Ability to inhibit kynurenine-3-hydroxylase was determined in a competitive inhibition assay.
Kynurenine 3-monooxygenase, sequence (O88867 whole entry): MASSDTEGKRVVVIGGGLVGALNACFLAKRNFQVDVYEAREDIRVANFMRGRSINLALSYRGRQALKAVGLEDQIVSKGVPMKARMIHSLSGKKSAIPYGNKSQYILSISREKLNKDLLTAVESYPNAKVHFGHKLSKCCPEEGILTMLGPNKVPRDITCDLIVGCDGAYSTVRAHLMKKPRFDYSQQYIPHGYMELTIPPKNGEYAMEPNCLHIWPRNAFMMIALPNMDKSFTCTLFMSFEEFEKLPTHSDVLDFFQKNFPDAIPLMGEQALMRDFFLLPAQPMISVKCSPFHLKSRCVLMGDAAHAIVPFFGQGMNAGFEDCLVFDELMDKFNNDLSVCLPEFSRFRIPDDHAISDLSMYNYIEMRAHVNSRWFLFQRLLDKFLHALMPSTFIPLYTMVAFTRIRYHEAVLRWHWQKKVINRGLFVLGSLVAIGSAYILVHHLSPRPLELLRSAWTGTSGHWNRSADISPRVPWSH

Kynurenine 3-monooxygenase (Rattus norvegicus), sequence (O88867 whole entry, looked up): as the sequence (O88867 whole entry) above

IC50 (Kynureninase) [µM] | -Log IC50/IC50 [13] | IC50 [14] [µM] | Compound | Death (Mus musculus [1]) | Death (Mus musculus [2]) | Clonic (Mus musculus [3]) | Clonic (Mus musculus [4]) | Tonic (Mus musculus [5]) | Tonic (Mus musculus [6]) | Effect (Rattus norvegicus [7]) [pmol/g] | Effect (Rattus norvegicus [8]) [pmol/g] | Effect (Rattus norvegicus [9]) [pmol/g] | Effect (Rattus norvegicus [10]) [pmol/g] | Effect (Rattus norvegicus [11]) [pmol/g] | Effect (Rattus norvegicus [12]) [pmol/g]
800 | 2.89 | 900 | NC(CC(=O)c1cccnc1)C(=O)O (configuration not stated) [NICOTINOYLALANINENAL] |  |  |  |  |  |  |  |  |  |  |  | 
900 | 2.52 | 300 | NC(CC(=O)c1ccc([N+](=O)[O-])cc1)C(=O)O (configuration not stated) |  |  |  |  |  |  |  |  |  |  |  | 
100 | 2.94 | 2000 | NC(CC(=O)c1ccccc1[N+](=O)[O-])C(=O)O (configuration not stated) [(ortho-nitrobenzoyl)alanine] |  |  |  |  |  |  |  |  |  |  |  | 

Compound | IC50 (Kynureninase) [µM] | -Log IC50/IC50 [13] | IC50 [14] [µM] | Death (Mus musculus [1]) | Death (Mus musculus [2]) | Clonic (Mus musculus [3]) | Clonic (Mus musculus [4]) | Tonic (Mus musculus [5]) | Tonic (Mus musculus [6]) | Effect (Rattus norvegicus [7]) [pmol/g] | Effect (Rattus norvegicus [8]) [pmol/g] | Effect (Rattus norvegicus [9]) [pmol/g] | Effect (Rattus norvegicus [10]) [pmol/g] | Effect (Rattus norvegicus [11]) [pmol/g] | Effect (Rattus norvegicus [12]) [pmol/g]
NC(CC(=O)c1cccc([N+](=O)[O-])c1)C(=O)O (configuration not stated) | 100 |  |  | 0 | 2 | 4 | 6 | 2 | 1 | 120 | 150 | 250 | 16000 | 4000 | 4000
